Results: US6875760B2 (Novo Nordisk A/S, priority 1999, dated 2005)

Target: T1, human glucagon receptor (Homo sapiens, UniProt P47871)
T1 construct: expressed in transfected cells; host or cells: BHK (baby hamster kidney) cells
Assay: Glucagon Binding Assay (III)
Conditions: BHK cell membranes, WGA SPA beads, 125I-glucagon; read-out: Glu Bd Assay (III) IC50
Procedure, shortened: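 Non-specific binding was set with 500 nM glucagon in this SPA-type binding assay using WGA beads. The receptor source was a membrane preparation, kept on ice or at 4 °C, from BHK cells transfected with the human receptor. Scintillation counts were taken after 4 hours of shaking and 8–48 hours of settling.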

T1 sequence (P47871 26-477): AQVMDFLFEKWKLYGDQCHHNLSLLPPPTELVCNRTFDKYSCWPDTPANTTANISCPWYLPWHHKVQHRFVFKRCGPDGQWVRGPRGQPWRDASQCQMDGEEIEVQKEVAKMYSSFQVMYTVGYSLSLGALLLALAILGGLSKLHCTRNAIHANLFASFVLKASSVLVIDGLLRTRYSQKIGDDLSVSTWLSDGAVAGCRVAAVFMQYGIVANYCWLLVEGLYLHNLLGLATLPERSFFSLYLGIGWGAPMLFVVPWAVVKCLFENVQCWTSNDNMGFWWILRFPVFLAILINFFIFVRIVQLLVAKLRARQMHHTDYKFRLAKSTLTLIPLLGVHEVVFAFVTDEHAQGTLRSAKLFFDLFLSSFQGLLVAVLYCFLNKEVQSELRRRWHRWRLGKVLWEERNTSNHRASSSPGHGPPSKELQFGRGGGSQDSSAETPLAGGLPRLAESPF

IC50 | SMILES
44 nM | CC(C)(C)c1ccc(N(Cc2ccc(C(=O)Nc3nn[nH]n3)cc2)C(=O)Nc2cc(C(F)(F)F)cc(C(F)(F)F)c2)cc1 [Example 330, 4-[3-(3,5-Bis(trifluoromethyl)phenyl)-1-(4-tert-butylphenyl)ureidomethyl]-N-(2H-tetrazol-5-yl)benzamide]
53 nM | O=C(Nc1nn[nH]n1)c1ccc(CN(C(=O)Nc2ccc(S(=O)(=O)C(F)(F)F)cc2)c2ccc(C3CCCCC3)cc2)cc1 [Example 455, 4-[1-(4-Cyclohexylphenyl)-3-(4-trifluoromethylsulfonylphenyl)ureidomethyl]-N-(2H-tetrazol-5-yl)benzamide]
386 nM | CC(C)(C)C1CCC(N(Cc2ccc(C(=O)Nc3nn[nH]n3)cc2)C(=O)Cc2c(Cl)cccc2Cl)CC1 (centres unmarked) [Example 539, 4-({(4-tert-Butylcyclohexyl)-[2-(2,6-dichlorophenyl)acetyl]amino}methyl)-N-(2H-tetrazol-5-yl)benzamide]
1680 nM | O=C(O)CCNC(=O)c1ccc(CN(C(=O)Nc2ccc(OC(F)(F)F)cc2)c2ccc(Br)cc2)cc1 [Example 430, 3-{4-[1-(4-Bromophenyl)-3-(4-trifluoromethoxyphenyl)ureidomethyl]benzoylamino}propionic acid]
3420 nM | O=C(O)CCNC(=O)c1ccc(CN(C(=O)c2ccc(Cc3ccccc3)cc2)c2ccc(C3CCCCC3)cc2)cc1 [Example 521, 3-(4-{[(4-Benzylbenzoyl)-(4-cyclohexylphenyl)amino]methyl}benzoylamino)propionic acid]
368 nM | O=C(Nc1nn[nH]n1)c1ccc(CN(C(=O)Nc2ccccc2OC(F)(F)F)c2ccc(C3=CCCCC3)cc2)cc1 [Example 351, 4-[1-(4-Cyclohex-1-enylphenyl)-3-(2-trifluoromethoxyphenyl)ureidomethyl]-N-(2H-tetrazol-5-yl)benzamide]
30 nM | CCN(c1ccccc1)S(=O)(=O)c1cccc(NC(=O)N(Cc2ccc(C(=O)NCCC(=O)O)cc2)c2ccc(C3CCCCC3)cc2)c1 [Example 265, 3-(4-{1-(4-Cyclohexylphenyl)-3-[3-(ethylphenylsulfamoyl)phenyl]ureidomethyl}benzoylamino)propionic acid]
304 nM | CC(C)(C)c1ccc(N(Cc2ccc(C(=O)Nc3nn[nH]n3)cc2)C(=O)Nc2cccc(Cl)c2)cc1 [Example 296, 4-[1-(4-tert-Butylphenyl)-3-(3-chlorophenyl)ureidomethyl]-N-(2H-tetrazol-5-yl)benzamide]
54 nM | O=C(Nc1nn[nH]n1)c1ccc(CN(C(=O)Nc2ccc(Cl)c(C(F)(F)F)c2)c2ccc(OC(F)(F)F)cc2)cc1 [Example 284, 4-[3-(4-Chloro-3-trifluoromethylphenyl)-1-(4-trifluoromethoxyphenyl)ureidomethyl]-N-(2H-tetrazol-5-yl)benzamide]
94 nM | CC(C)(C)C1CCC(N(Cc2ccc(C(=O)Nc3nn[nH]n3)cc2)C(=O)Nc2cccc(C#N)c2)CC1 (centres unmarked) [Example 274, 4-[1-(4-tert-Butylcyclohexyl)-3-(3-cyanophenyl)ureidomethyl]-N-(2H-tetrazol-5-yl)benzamide]
2000 nM | CC(C)(C)C1CCC(N(Cc2ccc(C(=O)NCCC(=O)O)cc2)C(=O)NCCc2ccccc2)CC1 (centres unmarked) [Example 27, 3-{4-[1-(4-tert-Butylcyclohexyl)-3-phenethylureidomethyl]benzoylamino}propionic acid]
1080 nM | CC1CCCCC1N(Cc1ccc(C(=O)NCCC(=O)O)cc1)C(=O)Nc1ccc(Oc2ccccc2)cc1 (centres unmarked) [Example 48, 3-{4-[1-(2-Methylcyclohexyl)-3-(4-phenoxyphenyl)ureidomethyl]benzoylamino}propionic acid]
1160 nM | CCN(CC)C(=O)c1cccc(NC(=O)N(Cc2ccc(C(=O)Nc3nn[nH]n3)cc2)c2ccc(C(C)(C)C)cc2)c1 [Example 462, N,N-Diethyl-3-{3-(4-tert-butylphenyl)-3-[4-(2H-tetrazol-5-ylcarbamoyl)benzyl]ureido}benzamide]

SMILES | IC50
CC(C)(C)c1ccc(N(Cc2ccc(C(=O)Nc3nn[nH]n3)cc2)C(=O)Oc2ccc(S(C)(=O)=O)cc2)cc1 [Example 624] | 2000 nM
